Where “and” joins values, the source holds several entries; their conditions need not be identical. Identical values can stand only once. Like-named read-outs stand apart in the source and are kept apart here.
Key:
[1] = Stability in microsomes, mouse; format: in vitro ADME; settings: for average DEG [%]: mouse microsomes, with cofactors
Experimental: The final incubation volume was 500 μL. Two control compounds (verapamil and donepezil) were included for each microsomal species, along with the appropriate vehicle control. The reactions were terminated by transferring 50 μL of incubate to 100 μL methanol containing an internal standard (metoprolol) at appropriate time points (0, 10, 20, 40, 60, and 120 min for the test compound and 0, 5, 10, 20, 40, and 60 min for the control compounds). The termination plates were centrifuged at 4000 x g at 4°C for 30 min to precipitate the protein. The supernatants were then collected for analysis, and LC-MS/MS was used for detection purposes. The system consisted of an Acquity™ Binary Solvent Manager, Acquity™ 4-position heated column manager, 2777 Ultra High Pressure Autosampler, and a Xevo-TQ MS triple quadrupole mass spectrometer (Waters Ltd., Herts, UK). This process was carried out twice.

[2] = Viability assay, HepG2 cells, MTT test, 48 h; format: cell-based, human; settings: human, HepG2 cells, sheet Fig1 panel B (HepG2), 48 h, replicates, read-out: viability, normalized to DMSO-treated controls
Experimental: (§1) To study the viability of the liver cells, 5 × 10^3 HepG2 (ATCC®) or human primary cells (ThermoFisher Scientific, USA) were seeded in 100 μL of DMEM media (Gibco; Thermo Fisher Scientific, USA) supplemented with fetal bovine serum (FBS)- in a 96-well plate. […] The experiments were performed in triplicates.

[3] = test system: HepG2; assay: Viability assay, HepG2 cells, MTT test, 48 h; format: cell-based, human; settings: for viability, normalized to DMSO-treated controls: sheet Fig1 panel B (HepG2), 48 h, replicates, in % (unit assumed)
Experimental: as §1

[4] = Pharmacokinetics in mice, serum and liver concentrations; settings: for serum conc: mouse, 3 mg/kg p.o., individual animals, 3 mg/kg
Experimental: The mice were separated into four groups of 32 mice per group. […] At time point t = 0, animals received a single dose of the compounds orally. […] Four hours after drug administration, the animals received standard chow. […] After solubilization in extraction buffer, the solutions were shaken for 1 min and then centrifuged for 4 min (4000 x g).

[5] = Single-dose pharmacokinetics in rats (p.o. and i.v.); format: in vivo, rat; design: plasma conc: unit not given here; settings: rat, rat
[6] = Mouse (CD) microsomes, mean n = 2
[7] = dose 200 mg/kg, Day 1, individual animals, 200 mg/kg

In the case of CC#C[C@@H](CC(=O)O)c1ccc(OCC(C)=C(C)C)cc1 [CPL207280], the half-life at 3 μM [1, 6] is reported as 1.93 h, the microsomal CLint at 3 μM [1, 6] is reported as 11.9 µL/min/mg and the “average DEG [%]” value ([1]; 0 min) is reported as 100.0%. For the same compound, the “average DEG [%]” value ([1]; 20 min) was 83.3%, the “average DEG [%]” value ([1]; 40 min) was 69.8% and the “average DEG [%]” value ([1]; 60 min) was 71.2%. It also gave a viability at 48 h, 3.125 µM ([2]; 3.125 uM) of 98.6%, a viability at 48 h, 6.25 µM ([2]; 6.25 uM) of 113% and a viability at 48 h, 25 µM ([2]; 25 uM) of 104%. For the same compound, the viability at 48 h, 50 µM ([2]; 50 uM) was 109%, the reduction of viability ([3]; HepG2, 48 h, 100 μM) was 20% and the viability ([3]; HepG2, 48 h, concentrations up to 10 μM) was “Neither compound exhibited altered viability”. For the same compound, the “times better tolerated by hepatocytes than TAK-875” value ([3]; hepatocytes (HepG2 and human primary cells)) was 10 times, the “viability, normalized to DMSO-treated controls” value (“viability, normalized” for short) ([3]; 0.78 uM) was 122.329 and 97.5265 and 106.534 and the “viability, normalized” value ([3]; 3.125 uM) was 108.127 and 98.0055. The “viability, normalized” value ([3]; 6.25 uM) was 101.696 and 107.84, the “viability, normalized” value ([3]; 25 uM) was 115.053 and 98.9684 and the “viability, normalized” value ([3]; 50 uM) was 104.17 and 94.9794. For the same compound, the “viability, normalized” value ([3]; 100 uM) was 89.5534 and 112.297 and 99.381, the “distribution between liver and serum” value ([4]; mice, single oral dose 3 mg/kg, 15 min to 24 h) was “serum was observed to be the central compartment” and the serum conc ([4]; 0.5 h) was 6337 and 10977.8 and 8698.6 and 7860.2. The serum conc ([4]; 1 h) was 14190.2 and 17872.7 and 14644.7 and 11914.7, the serum conc ([4]; 2 h) was 4293.9 and 8727 and 12877.2 and 5407.3 and the serum conc ([4]; 4 h) was 1048.2 and 2271.3 and 3572 and 4146.1. For the same compound, the serum conc ([4]; 7 h) was 456.3 and 1659.3 and 757.1 and 1712.9, the serum conc ([4]; 12 h) was 198.5 and 247.1 and 27.4 and 10.5 and the serum conc ([4]; 24 h) was 14.5 and 37.9 and 532.6 and 298. The “Penetration into the liver” value ([4]; summary comparison CPL207280 vs TAK-875) was “<”, the AUC ([5]; Wistar Han, plasma, oral, 200 mg/kg, dose 200 mg/kg, Day 1, individual animals, read-out: exposure - AUC) was 1240 µg·h/mL and the plasma conc ([5]; 3 mg/kg i.v., 0.08 h, single animals, 3 mg/kg) was 18185.2 and 14086.9 and 17991. For the same compound, the plasma conc ([5]; 3 mg/kg i.v., 0.5 h, single animals, 3 mg/kg) was 13324.4 and 11131.5 and 13374.4, the plasma conc ([5]; 3 mg/kg i.v., 1 h, single animals, 3 mg/kg) was 9899.4 and 7427.8 and 10049.5 and the plasma conc ([5]; 3 mg/kg i.v., 2 h, single animals, 3 mg/kg) was 3412.2 and 2931.7 and 2551.4. The plasma conc ([5]; 3 mg/kg i.v., 4 h, single animals, 3 mg/kg) was 1459.2 and 957.7 and 1370.6, the plasma conc ([5]; 3 mg/kg i.v., 7 h, single animals, 3 mg/kg) was 919.9 and 275.5 and 163.6 and 442.9 and the plasma conc ([5]; 3 mg/kg i.v., 12 h, single animals, 3 mg/kg) was 109.4 and 40.7 and 9.1 and 38.7. The plasma conc ([5]; 3 mg/kg p.o., 0.5 h, single animals, 3 mg/kg) was 1251.2 and 962.3 and 1047.3 and 2942.9 and 2148.4, the plasma conc ([5]; 3 mg/kg p.o., 1 h, single animals, 3 mg/kg) was 1116.7 and 1016.5 and 1560.5 and 2895.7 and 1904.8 and the plasma conc ([5]; 3 mg/kg p.o., 2 h, single animals, 3 mg/kg) was 850.9 and 932.5 and 1176.4 and 3463.8 and 1438.7. For the same compound, the plasma conc ([5]; 3 mg/kg p.o., 4 h, single animals, 3 mg/kg) was 878.1 and 1000.4 and 1366.6 and 4024.4 and 840.4, the plasma conc ([5]; 3 mg/kg p.o., 8 h, single animals, 3 mg/kg) was 569.6 and 2137.2 and 517.2 and 1993.4 and 909.2 and the plasma conc ([5]; 3 mg/kg p.o., 12 h, single animals, 3 mg/kg) was 324.7 and 347.6 and 456.6 and 204.4 and 474.2. The plasma conc ([5]; 3 mg/kg p.o., 24 h, single animals, 3 mg/kg) was 48.1 and 66.5 and 10.8 and 7 and 230.9, the Cmax [5, 7] was 183.679 µg/mL and 165.539 µg/mL and 190.632 µg/mL and 189.701 µg/mL and 159.39 µg/mL and the “exposure - AUC” value [5, 7] was 1896 µg·h/mL and 1692 µg·h/mL and 1420 µg·h/mL and 1892 µg·h/mL and 1506 µg·h/mL. The Cmax ([5]; plasma, 200 mg/kg, dose 200 mg/kg, Day 1, individual animals, read-out: Cmax) was 198 µg/mL, the concentration at 0.08 h ([5]; plasma, iv, 3 mg/kg, 3 mg/kg i.v., 0.08 h, single animals, read-out: plasma conc) was 19.2 µg/mL and the concentration at 0.5 h ([5]; plasma, iv, 3 mg/kg, 3 mg/kg i.v., 0.5 h, single animals, read-out: plasma conc) was 16.3 µg/mL. For the same compound, the concentration at 1 h ([5]; plasma, iv, 3 mg/kg, 3 mg/kg i.v., 1 h, single animals, read-out: plasma conc) was 10.9 µg/mL, the concentration at 2 h ([5]; plasma, iv, 3 mg/kg, 3 mg/kg i.v., 2 h, single animals, read-out: plasma conc) was 3.72 µg/mL and the concentration at 4 h ([5]; plasma, iv, 3 mg/kg, 3 mg/kg i.v., 4 h, single animals, read-out: plasma conc) was 1.57 µg/mL. For the same compound, the Tmax ([5]; plasma, iv, 3 mg/kg, rats, 3 mg/kg i.v.) was 0.083 h, the Cmax ([5]; plasma, iv, 3 mg/kg, rats, 3 mg/kg i.v., n = 5, read-out: Cmax) was 17.4 ± 2.25 µg/mL and the AUC ([5]; plasma, iv, 3 mg/kg, rats, 3 mg/kg i.v., read-out: AUC) was 27.1 ± 1.62 µg·h/mL. It also gave a bioavailability ([5]; plasma, oral, rats, 3 mg/kg p.o. vs i.v., read-out: F (bioavailability)) of 63%, a Tmax ([5]; plasma, po, 3 mg/kg, rats, 3 mg/kg p.o.) of 1 h and an AUC ([5]; plasma, po, 3 mg/kg, rats, 3 mg/kg p.o., read-out: AUC) of 17.6 ± 4.08 µg·h/mL.

Reference: article PMC8459971, “Evaluation of the hepatotoxicity of the novel GPR40 (FFAR1) agonist CPL207280 in the rat and monkey” (PLoS ONE, 2021)
